Measured values reported in patent US7230028B2, “Dimeric compounds and their use as anti-viral agents” (priority 2001, dated 2007).
Values after ≈ are worked out from the molar mass of the structure shown. Values joined by “and” are separate entries in the source; they are usually repeats but may differ in a detail not shown here. Equal values may be shown once.

Tests used:
B/Hong Kong/5/72 BVLV012 = experiment: Plaque reduction assay (PRA) in MDCK cells; type: cell-based, influenza B
Experimental: (§1) Madin Darby Canine Kidney (MDCK) cells are seeded into six well tissue culture plates and grown to confluency via standard methods. Influenza viruses are diluted in a minimal volume of phosphate buffered saline supplemented with 0.2% bovine serum albumin to yield an estimated titre of 50–100 plaque forming units (pfu) per well. After adsorption to the MDCK cells for one hour at 37° C. in a 5% CO2 atmosphere the viral inocula is aspirated and replaced with viral growth media (minimal Eagle's media supplemented with BSA, trypsin and insulin/transferrin/selenium at optimal concentrations) containing sufficient agar or agarose (generally 1–2%) to cause the media to gel at room temperature and at 37° C. in a 5% CO2 atmosphere until plaques develop (generally 2–4 days). Plaques can be visualised with a suitable stain (e.g. 0.4% crystal violet in formal saline) before counting.

[1] = test system: A/Victoria/3/75 BVLV017 (H3N2); experiment: Plaque reduction assay (PRA) in MDCK cells; type: cell-based
[2] = test system: B/Yamanashi/166/98 BVLV007; experiment: Plaque reduction assay (PRA) in MDCK cells; type: cell-based
[3] = test system: A/New Caledonia/20/99 BVLV008 (H1N1); experiment: Plaque reduction assay (PRA) in MDCK cells; type: cell-based; details: Influenza A virus, H1N1, MDCK, read-out: EC50 PRA A/New, plaque reduction, A/New Caledonia/20/99 (H1N1)
Influenza A/Sydney/5/97 = experiment: Cytopathic effect (CPE) assay, inhibition of influenza virus replication in MDCK cells; type: cell-based
Influenza B/Harbin/7/95 = experiment: as above; type: cell-based; details: up to 72 hours, MTT
[4] = test system: A/Sydney/5/97 BVLV015 (H3N2); experiment: Plaque reduction assay (PRA) in MDCK cells; type: cell-based, influenza A H3N2; details: A/Sydney/5/97 (H3N2)
Experimental: as §1

B/Victoria/1/67 = experiment: Plaque reduction assay (PRA) in MDCK cells; type: cell-based, influenza B; details: bis(trifluoroacetic acid salt)
[5] = Rat lung retention assay (intra-tracheal dosing); type: in vivo; details: rat lung, 0.1 mg/kg intra-tracheal; for (cmpd): individual animal, bis(trifluoroacetic acid salt), 0.1 mg/kg
Experimental: Rodents are anaesthetised and dosed with compound of interest by the intra-tracheal route at a dose volume of 0.8 ml/kg. The rodent is then held in the vertical position until full recovery is achieved. […] Any analytical method suitable for detection of this type of compound may be used. The time at which levels of compound fall below the sensitivity of the analytical techniques identified will determine the residency time of the compound in lung tissue.
Please note that all experiments included a co-dosed internal standard, namely compound 3 of International Patent Publication No. WO 02/20514, to permit comparison. The data are expressed as a ratio with respect to this compound, the structure of which is shown below.

For `NC12CC3CC(CC(C3)C1)C2` [Amantadine, reference compound], which EC50 (B/Hong Kong/5/72 BVLV012; Influenza B virus, MDCK, read-out: EC50 PRA B/HongK) is on record?
The EC50 was greater than 10000 ng/mL.

What about the EC50 ([1]; Influenza A virus, H3N2, MDCK, read-out: EC50 PRA A/Vic, plaque reduction, A/Victoria/3/75 (H3N2)) of the same molecule?
The EC50 was 220 ng/mL (≈ 1.45 µM).

And the EC50 ([2]; Influenza B virus, MDCK, read-out: EC50 PRA B/Yam, plaque reduction, B/Yamanashi/166/98)?
Its EC50 is 2060 ng/mL (≈ 13.6 µM).

What about the EC50 [3] of the same molecule?
Its EC50 is 11 ng/mL (≈ 0.0727 µM).

Which results are given for `CC(=O)N[C@H]1[C@H]([C@H](OC(=O)NCCCCCCCCCCNC(=O)O[C@@H]([C@@H]2OC(C(=O)O)=C[C@H](NC(=N)N)[C@H]2NC(C)=O)[C@H](O)CO)[C@H](O)CO)OC(C(=O)O)=C[C@@H]1NC(=N)N.O=C(O)C(F)(F)F.O=C(O)C(F)(F)F` [Example 1, (2R,3R,4S)-3-(acetylamino)-2-{(1R,18R,19R)-18-((2R,3R,4S)-3-(acetylamino)-4-{[amino(imino)methyl]amino}-6-carboxy-3,4-dihydro-2H-pyran-2-yl)-1-[(1R)-1,2-dihydroxyethyl]-19,20-dihydroxy-3,16-dioxo-2,17-dioxa-4,15-diazaicos-1-yl}-4-{[amino(imino)methyl]amino}-3,4-dihydro-2H-pyran-6-carboxylic acid bis(trifluoroacetic acid salt)]?
ID50 A/Sydney/5/97 (Influenza A/Sydney/5/97; up to 72 hours, MTT): 0.0002 µg/mL; ID50 B/Harbin/7/95 (Influenza B/Harbin/7/95): 0.0001 µg/mL

Which “ID50 A/Sydney/5/97” value (Influenza A/Sydney/5/97; up to 72 hours, MTT) does the source give for `CC(=O)N[C@H]1[C@H]([C@H](OC(=O)NCCCCCCCCCCCNC(=O)O[C@@H]([C@@H]2OC(C(=O)O)=C[C@H](NC(=N)N)[C@H]2NC(C)=O)[C@H](O)CO)[C@H](O)CO)OC(C(=O)O)=C[C@@H]1NC(=N)N.O=C(O)C(F)(F)F.O=C(O)C(F)(F)F` [Example 2, (2R,3R,4S)-3-(acetylamino)-2-{(1R,19R,20R)-19-((2R,3R,4S)-3-(acetylamino)-4-{[amino(imino)methyl]amino}-6-carboxy-3,4-dihydro-2H-pyran-2-yl)-1-[(1R)-1,2-dihydroxyethyl]-20,21-dihydroxy-3,17-dioxo-2,18-dioxa-4,16-diazahenicos-1-yl}-4-{[amino(imino)methyl]amino}-3,4-dihydro-2H-pyran-6-carboxylic acid bis(trifluoroacetic acid salt)] here?
Its value is 0.0001 µg/mL.

What about the “EC50 PRA A/Syd” value [4] of the same molecule?
The value was less than 0.0001 ng/mL.

What about the “EC50 PRA B/Yam” value ([2]; plaque reduction, B/Yamanashi/166/98) of the same molecule?
The value was less than 0.0001 ng/mL.

What about the “EC50 PRA B/Vic” value (B/Victoria/1/67) of the same molecule?
The value was 0.04 ng/mL.

What about the “ID50 B/Harbin/7/95” value (Influenza B/Harbin/7/95) of the same molecule?
Its value is 0.0001 µg/mL.

Which results are given for `CC(=O)N[C@H]1[C@H]([C@H](OC(=O)NCCCCCCCCCCCCNC(=O)O[C@@H]([C@@H]2OC(C(=O)O)=C[C@H](NC(=N)N)[C@H]2NC(C)=O)[C@H](O)CO)[C@H](O)CO)OC(C(=O)O)=C[C@@H]1NC(=N)N.O=C(O)C(F)(F)F.O=C(O)C(F)(F)F` [Example 3, (2R,3R,4S)-3-(acetylamino)-2-{(1R,20R,21R)-20-((2R,3R,4S)-3-(acetylamino)-4-{[amino(imino)methyl]amino}-6-carboxy-3,4-dihydro-2H-pyran-2-yl)-1-[(1R)-1,2-dihydroxyethyl]-21,22-dihydroxy-3,18-dioxo-2,19-dioxa-4,17-diazadocos-1-yl}-4-{[amino(imino)methyl]amino}-3,4-dihydro-2H-pyran-6-carboxylic acid bis(trifluoroacetic acid salt)]?
EC50 PRA B/HongK (B/Hong Kong/5/72 BVLV012): <0.0001 ng/mL; ID50 A/Sydney/5/97 (Influenza A/Sydney/5/97; molar): 0.087 M; ID50 A/Sydney/5/97 (Influenza A/Sydney/5/97; up to 72 hours, MTT): 0.0001, 0.0001 μg/ml; EC50 PRA A/Vic ([1]; plaque reduction, A/Victoria/3/75 (H3N2)): 0.0023 ng/mL; EC50 PRA B/Vic (B/Victoria/1/67): 0.01 ng/mL; Mean (cmpd) ([5]; 48 hrs): 1117 ng/g; Mean (cmpd) ([5]; 168 hrs): 376 ng/g; (cmpd) ([5]; 48 hrs): 591 ng/g and 1845 ng/g and 914 ng/g; (cmpd) ([5]; 168 hrs): 471 ng/g and 546 ng/g and 111 ng/g; ID50 B/Harbin/7/95 (Influenza B/Harbin/7/95): 0.0001, 0.0001 μg/ml
